Experimental data taken from patent US20250114389A1, “NUCLEOSIDES AND NUCLEOTIDES ANALOGS AS ANTIVIRAL AGENTS” (Emory University, priority 2021, published 2025).
Where two headings read alike, the source gives them in different places.

Assays:
Assay type in all cases: cell-based
[1] = system: SARS-CoV2 variant Alpha; assay: microbe, parasite or virus in culture
[2] = system: SARS-CoV2 variant Beta; assay: microbe, parasite or virus in culture
[3] = system: SARS-CoV2 variant Gamma; assay: microbe, parasite or virus in culture
[4] = system: SARS-CoV2 variant Beta; assay: microbe, parasite or virus in culture; remark: listed apart in the source
[5] = system: SARS-CoV2 variant Delta; assay: microbe, parasite or virus in culture
[6] = system: SARS-CoV2 variant Gamma; assay: microbe, parasite or virus in culture; remark: listed apart in the source
[7] = system: SARS-CoV2 Lineage A (Eng); assay: Antiviral activity against SARS-CoV2 Lineage A (Eng) in Calu3
[8] = system: SARS-CoV2 variant Delta; assay: microbe, parasite or virus in culture; remark: listed apart in the source
[9] = system: SARS-CoV2 Lineage A (Wa); assay: Antiviral activity against SARS-CoV2 Lineage A (Wa) in Vero
[10] = system: SARS-CoV2 variant Alpha; assay: microbe, parasite or virus in culture; remark: listed apart in the source
[11] = system: SARS-CoV2 Lineage A (Wa); assay: Antiviral activity against SARS-CoV2 Lineage A (Wa) in Calu3
[12] = Severe acute respiratory syndrome coronavirus 2, Calu-3, Calu3, read-out: Antiviral Activity Against SARS-CoV2 Variants in Calu3, first value column
[13] = Severe acute respiratory syndrome coronavirus 2, Vero, read-out: Antiviral Activity Against SARS-CoV2 Variants in Vero, first value column
[14] = Severe acute respiratory syndrome coronavirus 2, Calu-3, read-out: Antiviral Activity Against SARS-CoV2 Variants in Calu3, first value column

N#C[C@@]1(n2ccc(N)nc2=O)O[C@H](CO)[C@@H](O)[C@H]1O [Compound A, (2R,3R,4S,5R)-2-(4-amino-2-oxopyrimidin-1(2H)-yl)-3,4-dihydroxy-5-(hydroxymethyl)-tetrahydrofuran-2-carbonitrile]
Antiviral Activity Against SARS-CoV2 Variants in Calu3, second value column [1]: 0.4 µM | EC50 [1, 12]: 100 nM | Antiviral Activity Against SARS-CoV2 Variants in Calu3, second value column [2]: 1.2 µM | EC50 [2, 12]: 300 nM | Antiviral Activity Against SARS-CoV2 Variants in Vero [3]: 1.0 µM | EC50 [3, 13]: 800 nM | Antiviral Activity Against SARS-CoV2 Variants in Vero [4]: 1.4 µM | EC50 [4, 13]: 300 nM | Antiviral Activity Against SARS-CoV2 Variants in Calu3, second value column [5]: 0.1 µM | EC50 [5, 12]: 40 nM | Antiviral Activity Against SARS-CoV2 Variants in Calu3, second value column [6]: 1.2 µM | EC50 [6, 12]: 1100 nM | Antiviral Activity Against SARS-CoV2 Variants in Calu3, second value column [7]: 3.6 µM | EC50 [7, 14]: 1800 nM | Antiviral Activity Against SARS-CoV2 Variants in Vero [8]: 0.3 µM | EC50 [8, 13]: 200 nM | Antiviral Activity Against SARS-CoV2 Variants in Vero [9]: 0.4 µM | EC50 ([9]; Severe acute respiratory syndrome coronavirus 2, read-out: Antiviral Activity Against SARS-CoV2 Variants in Vero, first value column): 200 nM | Antiviral Activity Against SARS-CoV2 Variants in Vero [10]: 1.2 µM | EC50 [10, 13]: 800 nM | Antiviral Activity Against SARS-CoV2 Variants in Calu3, second value column [11]: 4.5 µM | EC50 [11, 14]: 1700 nM

CCC(CC)COC(=O)[C@H](C)N[P@](=O)(OC[C@H]1O[C@@](C#N)(c2ccc3c(N)ncnn23)[C@H](O)[C@@H]1O)Oc1ccccc1 [Remdesivir, reference compound]
Antiviral Activity Against SARS-CoV2 Variants in Calu3, second value column [1]: 0.4 µM | Antiviral Activity Against SARS-CoV2 Variants in Calu3, second value column [2]: 0.4 µM | Antiviral Activity Against SARS-CoV2 Variants in Vero [3]: 2.2 µM | Antiviral Activity Against SARS-CoV2 Variants in Vero [4]: 1.6 µM | Antiviral Activity Against SARS-CoV2 Variants in Calu3, second value column [5]: 0.3 µM | Antiviral Activity Against SARS-CoV2 Variants in Calu3, second value column [7]: 2.3 µM | Antiviral Activity Against SARS-CoV2 Variants in Vero [8]: 2.1 µM | Antiviral Activity Against SARS-CoV2 Variants in Vero [9]: 2.9 µM | Antiviral Activity Against SARS-CoV2 Variants in Vero [10]: 0.6 µM | Antiviral Activity Against SARS-CoV2 Variants in Calu3, second value column [11]: 0.3 µM
